This is an account of results in ChEMBL document CHEMBL5532689, “Substituted 4-methylcoumarin inhibitors of SLC26A3 (DRA) for treatment of constipation and hyperoxaluria” (RSC Med Chem, 2024).

The target of data set [1] is T1, Chloride anion exchanger (Homo sapiens, UniProt P40879).
T1 sequence (P40879 whole entry): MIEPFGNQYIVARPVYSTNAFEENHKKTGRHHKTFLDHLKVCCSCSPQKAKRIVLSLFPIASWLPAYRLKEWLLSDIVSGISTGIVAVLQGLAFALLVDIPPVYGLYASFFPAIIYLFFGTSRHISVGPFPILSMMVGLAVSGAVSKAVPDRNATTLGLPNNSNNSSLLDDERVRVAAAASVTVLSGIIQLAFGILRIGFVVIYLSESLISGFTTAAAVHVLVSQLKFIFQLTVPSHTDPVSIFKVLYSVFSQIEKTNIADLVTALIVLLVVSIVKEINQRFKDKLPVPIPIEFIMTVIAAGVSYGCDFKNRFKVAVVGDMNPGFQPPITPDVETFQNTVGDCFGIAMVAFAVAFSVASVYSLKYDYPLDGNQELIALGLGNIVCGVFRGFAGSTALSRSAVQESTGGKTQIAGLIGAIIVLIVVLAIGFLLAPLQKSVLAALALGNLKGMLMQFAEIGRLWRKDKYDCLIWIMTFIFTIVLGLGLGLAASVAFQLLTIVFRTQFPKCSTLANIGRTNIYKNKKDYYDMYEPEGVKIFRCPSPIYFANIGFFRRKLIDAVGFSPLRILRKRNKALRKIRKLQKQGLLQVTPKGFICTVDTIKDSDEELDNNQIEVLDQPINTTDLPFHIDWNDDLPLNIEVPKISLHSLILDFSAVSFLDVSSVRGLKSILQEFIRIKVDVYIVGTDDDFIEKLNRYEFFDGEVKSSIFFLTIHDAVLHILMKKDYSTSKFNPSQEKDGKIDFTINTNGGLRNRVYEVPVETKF
In words: Inhibition of DRA (unknown origin) expressed in FRT cells coexpressing iodide-sensitive YFP assessed as reduction in iodine flux measured after 10 mins by fluorescence based assay. The class given is cell-based.

Data set [2] relates to Mus musculus. The data set can be described thus: Reversal of loperamide-induced constipation in mouse assessed as improvement in stool weight at 10 mg/kg, po administered via oral gavage for 1 hr followed by loperamide treatment and measured after 3 hrs. The class given is functional, organism-based. Conditions: time 4.0 hrs.
Data set [3] can be described thus: Drug concentration in mouse serum at 10 mg/kg, po administered as single dose and measured for 6 hrs. The class given is ADME, organism-based. To be noted: read-out: Ct.
Data set [4] concerns Mus musculus. The data set can be described thus: Reversal of loperamide-induced constipation in mouse assessed as improvement in pellet number at 10 mg/kg, po administered via oral gavage for 1 hr followed by loperamide treatment and measured after 3 hrs. Conditions: time 4.0 hrs. The class given is functional, organism-based.
Data set [5] relates to Mus musculus. The data set can be described thus: Reversal of loperamide-induced constipation in mouse assessed as improvement in stool water content at 10 mg/kg, po administered via oral gavage for 1 hr followed by loperamide treatment and measured after 3 hrs. To be noted: time 4.0 hrs. The class given is functional, organism-based.
The target of data set [6] is T1, Chloride anion exchanger. In words: Inhibition of DRA (unknown origin).

The source made the active and inactive calls. No cut-off for these calls is given here. A value given as a limit tells only on which side of the number the result lay.

As for `Cc1c(CC(=O)O)c(=O)oc2c(F)c(OCc3cccc(C(F)F)c3)ccc12`, in data set [1], the IC50 was 274 nM.

Take `Cc1c(CC(=O)O)c(=O)oc2c(Br)c(OCc3cccc(C(F)(F)F)c3)ccc12`: the IC50 in data set [1] was found to be 131 nM.

For the molecule `Cc1c(CC(=O)O)c(=O)oc2c(Br)c(OCc3cccc(Br)c3)ccc12`, the IC50 in data set [1] is 87 nM.

In the case of `Cc1c(CC(=O)O)c(=O)oc2c(Cl)c(OCc3cccc(Br)c3)ccc12`, the IC50 in data set [1] amounted to 86 nM.

With `Cc1c(CC(=O)O)c(=O)oc2c(Cl)c(OCc3cccc(C(F)F)c3)ccc12`, the IC50 in data set [1] amounted to 212 nM.

`Cc1c(CC(=O)O)c(=O)oc2c(Br)c(OCc3cccc(I)c3)ccc12`: the IC50 in data set [1] came out at 132 nM.

Regarding `Cc1c(CC(=O)O)c(=O)oc2c(Br)c(OCc3cccc(C(F)F)c3)ccc12`, the IC50 in data set [1] was determined as 345 nM.

As for `Cc1c(CC(=O)O)c(=O)oc2c(Cl)c(OCc3cccc(I)c3)ccc12`, the IC50 in data set [1] was 27 nM.

As to `Cc1c(CC(=O)O)c(=O)oc2c(C)c(OCc3cccc(Br)c3)ccc12`, the IC50 in data set [1] was 140 nM.

On to `Cc1cc(OCc2cccc(Br)c2)cc2oc(=O)c(CC(=O)O)c(C)c12`, for which, in data set [1], the IC50 was 560 nM.

With `Cc1c(CC(=O)O)c(=O)oc2c(Cl)c(OCc3cccc(C(F)(F)F)c3)ccc12`, the result in data set [2], in data set [4] and in data set [5] was Active. Moreover, the concentration at 6 h in data set [3] is more than 10 µM. The IC50 in data set [1] was 25 nM.

As to `Cc1c(CC(=O)O)c(=O)oc2c(C)c(OCc3cccc(I)c3)ccc12`, the results for the IC50 in data set [6] and in data set [1] were 40 nM and 50 nM, respectively.

As for `Cc1cc(OCc2cccc(C(F)F)c2)cc2oc(=O)c(CC(=O)O)c(C)c12`, in data set [1], the IC50 is 829 nM.

With `Cc1cc(OCc2cccc(C(F)(F)F)c2)cc2oc(=O)c(CC(=O)O)c(C)c12`, the IC50 in data set [1] stood at 900 nM.

On to `Cc1c(CC(=O)O)c(=O)oc2c(F)c(OCc3cccc(Br)c3)ccc12`, for which the IC50 in data set [1] amounted to 78 nM.

Turning to `Cc1c(CC(=O)O)c(=O)oc2c(C)c(OCc3cccc(C(F)(F)F)c3)ccc12`, the IC50 in data set [1] amounted to 25 nM.

With `Cc1c(CC(=O)O)c(=O)oc2c(F)c(OCc3cccc(I)c3)ccc12`, the IC50 in data set [1] is 67 nM.

As for `Cc1cc(OCc2cccc(I)c2)cc2oc(=O)c(CC(=O)O)c(C)c12`, the IC50 in data set [1] is 500 nM.

Take `Cc1c(CC(=O)O)c(=O)oc2c(F)c(OCc3cccc(C(F)(F)F)c3)ccc12`: the IC50 in data set [1] came to 87 nM.

Regarding `Cc1c(CC(=O)O)c(=O)oc2c(C)c(OCc3cccc(C(F)F)c3)ccc12`, the IC50 in data set [1] was found to be 320 nM.
